Earlier results, collected in patent US20050165041A1, “Combination for the treatment of airway disorders” (Altana Pharma AG, priority 2002, published 2005).

Tests used:
[1] = 8-week double-blind, placebo-controlled crossover study; sole medication
[2] = test system: HCl-induced lung lesions; details: rats
[3] = combination with theophyllin

Row | pharmacokinetic interaction with theophyllin [3] | Structure (SMILES) | nocturnal asthma symptoms [1] | effect on HCl-induced lung lesions [2]
1 |  | COc1ccc2[nH]c([S+]([O-])Cc3ncc(C)c(OC)c3C)nc2c1 (stereo not shown) [omeprazole, 5-methoxy-2-[(4-methoxy-3,5-dimethyl-2-pyridinyl)methylsulphinyl]-1H-benzimidazole] | reduction in nocturnal asthma symptoms | beneficial effect
2 | lack of pharmacokinetic interaction | COc1ccnc(C[S+]([O-])c2nc3ccc(OC(F)F)cc3[nH]2)c1OC (stereo not shown) [pantoprazole, 5-difluoromethoxy-2-[(3,4-dimethoxy-2-pyridinyl)methylsulphinyl]-1H-benzimidazole] |  | 
3 | lack of pharmacokinetic interaction | Cc1c(OCC(F)(F)F)ccnc1C[S+]([O-])c1nc2ccccc2[nH]1 (stereo not shown) [lansoprazole] |  | 
